The record followed here is patent US12331042B2, “Compounds suitable for the treatment and prophylaxis of muscle wasting and other conditions” (priority 2019, dated 2025).

SMILES strings stand for the structures. Entries after “also recorded” stand apart in the source; their conditions may differ.

In one test the test system is MuRF1 central fragment. The test is described as follows: Differential scanning fluorimetry (DSF) of MuRF1 central fragment. Type of test: binding. The note with it: 100 μM compound, 1% DMSO in PBS, 75 μM protein; 65.8° C. with 1% DMSO alone. Here is the method:
The effect of compound MyoMed-946 on MuRF1 protein stability was determined in vitro by differential scanning fluorimetry (DSF).
“MuRF1 central fragment” was expressed as previously described (Mrosek M et al., FASEB J, 2007, 21, 1383-1392) and used in DSF experiments at 75 μM final concentration. Compound MyoMed-946 was diluted from a 10 mM stock in DMSO to 100 μM in PBS as DSF assay buffer, resulting in a final concentration of 1% DMSO. After 1 hour pre-incubation at room temperature, the aqueous protein solutions were soaked into capillaries and placed into a Prometheus NT.48 nanoDSF device (NanoTemper Technologies, Munich, Germany). Changes in the intrinsic tryptophan or tyrosine fluorescence that occurred after LED laser excitement upon protein unfolding in a thermal gradient was detected at 330 nm and 350 nm, respectively. […] The first derivative of the fluorescence wavelength ratio of 350/330 nm upon thermal protein unfolding was used to calculate transition midpoint (Tm) of single and multiple transition states.
On the technique in general: DSF heats the sample and reads unfolding from a dye or from intrinsic fluorescence.

The subject of test [1] is diaphragm fiber bundle of MCT mice. The test is described as follows: Contractile function of diaphragm fiber bundles, MCT mice. The note with it: MCT mice fed compound vs MCT; MCT impairs by around 20% vs sham. It is filed as in vivo. Here is the method:
To provide a direct functional assessment, the contractility in skeletal muscle fiber bundles, i.e. fibre bundle from the diaphragm of MCT mice and CIF mice, was measured as follows. A fiber bundle from the diaphragm was isolated to allow in vitro contractile function to be assessed using a length-controlled lever system (301B, Aurora Scientific Inc., Aurora, Canada), as described by Bowen et al., FASEB J, 2017, 31. Briefly, a muscle bundle was mounted vertically in a buffer-filled organ bath (˜22° C.), set at optimal length, and after 15 min was stimulated over a force-frequency protocol between 1-300 Hz (600 mA; 500 ms train duration; 0.25 ms pulse width). […] Shortening velocity was determined 10 ms after the first change in length and on the linear section of the transient (DMA software, Aurora Scientific). Force (N) was normalized to muscle cross-sectional area (CSA; cm^2) by dividing muscle mass (g) by the product of Lo (cm) and estimated muscle density (1.06), which allowed specific force in N/cm^2 to be calculated. Shortening velocity was normalized to optimal muscle length (in Lo/s), while power was calculated for each load as the product of shortening velocity and specific force (in W/cm^2).

Test [2] has as its system eIF2B4, AS3MT, ATPAF1, GHDC, BAX protein levels in diaphragm. The test is described as follows: Proteomic analysis (mass spectrometry) of diaphragm, MCT mice. It is filed as in vivo. The note with it: MCT + MyoMed-946/MCT, n=3 per group. How it is done:
Proteins from frozen diaphragm samples in sham, MCT, and MCT+compound mice (n=3 per group) were powdered under liquid N2. Mass spectrometry was then performed at the DZHK mass spectrometry core facility at Bad Nauheim, as described in Konzer et al., Methods in molecular biology, 2013, 1005, 39-52. The relative ratios for MCT/sham and MCT+compound/MCT were determined, with only hits deemed to be differentially expressed and highly significant (P<0.01) further studied by Western blot.

The target in the next test is MuRF1 E3 ligase activity (Homo sapiens, UniProt Q969Q1). The test is described as follows: Inhibition of MuRF1 E3 ligase activity (ubiquitination, Western blot). Type of test: biochemical. The following applies: 20-100 μmol/L compound, 1 h at 37° C., based on ubiquitination patterns. Here is the method: Compounds were then assessed for effects on MuRF1 E3 ligase activity directed to titin or to MuRF1 itself (self-ubiquitination) by mixing 75 nmol/L UBE1 (Boston Biochem), 1 μmol/L UbcH5c (Boston Biochem), 100 μmol/L Ubiquitin, 4 mmol/L ATP, 100 nmol/L Titin A168-170 with 20-100 μmol/L of respective compounds. Reactions were started by addition of 220 nmol/L MuRF1, followed by 1 h at 37° C., SDS PAGE and Western blot analysis with MuRF1 and titin specific antibodies. All reactions also included 5% DMSO.
Chain of MuRF1 E3 ligase activity (Q969Q1 whole entry): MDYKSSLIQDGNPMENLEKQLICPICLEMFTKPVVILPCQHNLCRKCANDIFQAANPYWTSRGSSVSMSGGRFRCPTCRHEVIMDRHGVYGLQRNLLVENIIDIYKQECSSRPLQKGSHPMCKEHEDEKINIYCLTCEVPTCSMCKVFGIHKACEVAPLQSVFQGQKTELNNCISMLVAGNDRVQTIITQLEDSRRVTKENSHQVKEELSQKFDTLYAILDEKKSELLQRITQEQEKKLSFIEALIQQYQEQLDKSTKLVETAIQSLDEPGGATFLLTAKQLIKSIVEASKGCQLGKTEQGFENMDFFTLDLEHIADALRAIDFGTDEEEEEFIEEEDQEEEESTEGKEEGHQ
On the technique in general: In western blotting, separated proteins are transferred to a membrane and probed.

Test [3] relates to citrate synthase and mitochondrial complex I. Nature of the test: Enzyme activity measurements in muscle tissue, B16F10 mice. Type of test: in vivo. The following applies: tumor+compound vs tumor. Here is the method: The enzyme activities of citrate synthase and mitochondrial complex I in muscle tissue of B16F10 inoculated mice were determined as described above for the […] mice.

Test [4] has as its system monocrotaline (MCT)-treated C57BL/6 mice. The test is described as follows: Pulmonary hypertension mouse model, test series 1. It is filed as in vivo. The following applies: MCT+compound chow vs MCT. How it is done: The animal experiments were approved by the Regierungspräsidium Karlsruhe (35-9185.81/G-141/13) and the Regierungspräsidium Leipzig (TVV 40/16). Three groups of mice were included in this study, including: 1) saline-treated (sham; n=20); 2) monocrotaline (MCT)-treated fed normal chow (MCT; n=27); and 3) MCT-treated fed MuRF1 inhibitor chow (MCT+compound; n=27). Briefly, C57BL/6 mice (aged 8 weeks) were subcutaneously injected weekly with either MCT (600 mg/kg) or a matched volume of saline for 6 weeks, a time period where MCT is known to induce cardiac cachexia due to pulmonary hypertension and subsequent RV dysfunction rather than anorexia, as described by Ahn et al., PLoS One, 2013, 8:e62702. Mice were exposed to identical conditions under a 12:12 h light/dark cycle with food and water provided ad libitum. The MCT+compound group started receiving the inhibitor chow 1 week prior to the MCT injections, whereas the sham and MCT groups were fed an identical chow but without the addition of the selected compound. Body weight was recorded every week for each mouse. […]
For histological evaluation, paraffin-embedded TA muscle sections (3 μm) were stained with H&E and fiber cross-sectional area (CSA) and then evaluated by imaging software (Analysis 3.0, Olympus Soft Imaging Solutions GmbH, Munster, Germany). […]

On to `Cc1cc(=O)oc2cc(OCc3ccc(C(=O)OCC(=O)NC(=O)NCc4ccco4)cc3)ccc12` [MyoMed-946, [2-(2-furylmethylcarbamoylamino)-2-oxo-ethyl] 4-[(4-methyl-2-oxo-chromen-7-yl)oxymethyl]benzoate], for which the “main Tm of MuRF1 central fragment” value in the test with MuRF1 central fragment was found to be 52.5 °C. Also, in test [1], the “contractile dysfunction of the diaphragm (shortening velocity and power)” value was “essentially prevented”. Moreover, in test [2], the “Protein Ratio (log2), AS3MT” value is recorded as −0.31; the “Protein Ratio (log2), ATPAF1” value is listed as −0.68; the “Protein Ratio (log2), BAX” value is listed as −0.73; the “Protein Ratio (log2), GHDC” value was −0.39. Further, the “Protein Ratio (log2), eIF2B4” value in test [2] was 0.32. The “inhibition of MuRF1 E3 ligase activity” value on MuRF1 E3 ligase activity is on record as “significantly inhibit MuRF1 E3 ligase activity”. The “citrate synthase enzyme activity” value in test [3] was “attenuated; also recorded: partially or complete restores”. Moreover, the right ventricle hypertrophy result in test [4] (6 weeks MCT) is recorded as “attenuated; also recorded: attenuates the development of right ventricle hypertrophy”. Moreover, the “loss of skeletal muscle mass (EDL, soleus, TA wet weight, TA fiber CSA)” value in test [4] (most obvious effect in TA muscle) is listed as “protected”.
